These results are taken from patent US20250163074A1, “CDK Inhibitors And Their Use As Pharmaceuticals” (Prelude Therapeutics Incorporated, priority 2020, published 2025).

Assay [1] has as its system MCF7 adenocarcinoma cell line. As to the kind of experiment: Cell proliferation studies in MCF7 cells (ATP-Lite). The class given is cell-based. Conditions: 10 days incubation, cell viability by ATP-Lite luminescence, read-out: PROLIFERATION_CTG_MCF7 IC50. Here is the method:
Cell Proliferation Studies in MCF7 Cells
Cell proliferation studies were conducted in MCF7 adenocarcinoma cell line. Cells were maintained in DMEM (Corning, Catalog #: 10-013-CV) supplemented with 10% v/v FBS (Gibco, Catalog #: 26140-079), 1% v/v Penicillin Streptomycin (Gibco, Catalog #15140-122) Cells were seeded in 384-well plates at a density of 100 or 200 cells/well. Compounds dissolved in DMSO were plated in quadruplicate using a digital dispenser (D300E, Tecan) and tested on a 9-point 3-fold serial dilution. Cells were incubated for 10 days in a 37° C. active humidified incubator at 5% CO2. A media exchange and second compound addition were performed on day 5. Cell viability was measured using the ATP-Lite 1-Step Luminescence reagent (Perkin Elmer, Catalog #: 6016731) as per manufacturer's instructions. Luminescence signal was measured with a multimode plate reader (Envision 2105, Perkin Elmer). Raw data files were imported to Dotmatics Screening Ultra for IC50 analysis. Luminescence values were normalized to both background and DMSO controls to obtain a percentage of viable cells relative to DMSO vehicle control.

A further assay addresses CDK4/Cyclin D1 (Homo sapiens (Human), UniProt P11802). As to the kind of experiment: CDK4/CyclinD1 enzymatic activity assay (TR-FRET). Type of assay: biochemical. The settings on record: CDK4/CyclinD1 1 nM, ATP 2 mM, read-out: CDK4_D1 IC50. Here is the method: CDK4/CyclinD1 Enzymatic Activity Assay
(§1) The inhibitory activity of compounds was evaluated in vitro using TR-FRET assay with white 384-well low volume microplate (Greiner Bio-One). CDK4/Cyclin D1 catalyzed phosphorylation of peptide in the presence and absence of compounds was measured. IC50 determination. Recombinant protein complex CDK4/Cyclin D1, expressed from insect cell, was purchased from ProQinase. Testing compounds were dissolved in DMSO at 0.1 mM and tested in 9-dose IC50 mode. The reaction mixture was prepared by mixing CDK4/CyclinD1 (1 nM final), ULight-4E-BP1 (100 nM final, Perkinelmer, TRF0128-D), and ATP (2 mM final) in assay buffer (20 mM of HEPES pH 7.4, 1 mM of EGTA, 0.05% BSA, 0.005% Tween 20, and 1 mM TCEP). The compound of interest in DMSO was added to each well in 3-fold serial dilution by dispenser (TECAN D300E). After 20 minutes preincubation at room temperature, MgCl2 (10 mM final) was added to initiate the reaction. Following a 60 minutes incubation at 37° C., the reaction was stopped by addition of 2 μL of quenching buffer consisting of Lance detection buffer (Perkinelmer CR97-100C), 2 nM LANCE Ultra Europium-anti-P-4E-BP1 (Perkinelmer, TRF0216-D), 10 mM EDTA, and incubate at room temperature for additional 60 minutes in dark. The reaction signal was measured by Envision multimode plate reader (PerkinElmer, 2102-0010). IC50 values were determined by fitting the data to the standard 4 parameters with Hill Slope using GraphPad Prism software.
In general terms: Time-resolved FRET reads energy transfer from a long-lived donor to a nearby acceptor.

In a further assay the target is CDK6/Cyclin D1 (Homo sapiens (Human), UniProt Q00534). The experiment in a line: CDK6/CyclinD1 enzymatic activity assay (TR-FRET). The class given is biochemical. Conditions: CDK6/Cyclin D1 1 nM, ATP 250 μM, read-out: CDK6_D1 IC50. Here is the method:
CDK6/CyclinD1 Enzymatic Activity Assay
as §1, with “CDK6/Cyclin” for “CDK4/Cyclin”, “measured and used in” for “measured.”, “CDK6/Cyclin D1” for “CDK4/CyclinD1”, “(250 μM” for “(2 mM”, “temperature, 0.1 μL” for “temperature,”

pIC50: −log10 of the molar value. Like-named read-outs stand apart in the source and are kept apart here.

Chain of CDK6/Cyclin D1 (Q00534 whole entry): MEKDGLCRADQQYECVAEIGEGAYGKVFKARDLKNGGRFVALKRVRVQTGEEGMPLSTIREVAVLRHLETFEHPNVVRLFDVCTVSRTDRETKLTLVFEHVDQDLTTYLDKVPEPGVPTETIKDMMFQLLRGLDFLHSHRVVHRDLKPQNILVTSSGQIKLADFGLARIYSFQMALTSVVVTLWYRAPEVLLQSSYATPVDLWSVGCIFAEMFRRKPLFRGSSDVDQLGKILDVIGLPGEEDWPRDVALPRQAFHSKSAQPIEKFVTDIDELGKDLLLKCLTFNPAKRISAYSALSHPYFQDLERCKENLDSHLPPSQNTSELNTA
Chain of CDK6/Cyclin D1 (P24385 whole entry partner): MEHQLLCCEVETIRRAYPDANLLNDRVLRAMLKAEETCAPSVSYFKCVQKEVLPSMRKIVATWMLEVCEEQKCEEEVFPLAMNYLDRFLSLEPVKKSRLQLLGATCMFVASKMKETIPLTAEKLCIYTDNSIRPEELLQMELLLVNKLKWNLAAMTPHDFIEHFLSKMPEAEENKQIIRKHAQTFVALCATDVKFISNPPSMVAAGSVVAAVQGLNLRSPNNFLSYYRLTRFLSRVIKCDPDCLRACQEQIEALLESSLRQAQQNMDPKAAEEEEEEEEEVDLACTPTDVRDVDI
Chain of CDK4/Cyclin D1 (P11802 whole entry): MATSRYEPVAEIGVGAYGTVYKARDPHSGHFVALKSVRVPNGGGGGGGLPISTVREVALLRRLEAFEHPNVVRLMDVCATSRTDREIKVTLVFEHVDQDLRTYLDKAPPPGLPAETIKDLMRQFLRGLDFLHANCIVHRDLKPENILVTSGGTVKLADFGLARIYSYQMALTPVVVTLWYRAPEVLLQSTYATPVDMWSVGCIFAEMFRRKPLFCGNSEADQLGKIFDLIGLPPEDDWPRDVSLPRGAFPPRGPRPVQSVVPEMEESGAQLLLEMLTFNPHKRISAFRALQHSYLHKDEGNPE
Chain of CDK4/Cyclin D1 (P24385 whole entry partner): as the sequence (P24385 whole entry partner) above

For `Cc1c(-c2nc(Nc3ccc(N4CC5(C4)CN(C(C)C)C5)cn3)ncc2F)sc2c1C(=O)N(C)CC21CC1` [Example 34, 2′-(5-Fluoro-2-((5-(6-isopropyl-2,6-diazaspiro[3.3]heptan-2-yl)pyridin-2-yl)amino)pyrimidin-4-yl)-3′,5′-dimethyl-5′,6′-dihydro-4′H-spiro[cyclopropane-1,7′-thieno[3,2-c]pyridin]-4′-one], the pIC50 was at least 7.70 in assay [1] (Homo sapiens, 240 h); at least 7.70 on CDK4/Cyclin D1; at least 7.70 at CDK6/Cyclin D1.
With `Cc1c(-c2nc(Nc3ccc(N4CCC5(CC4)CN(C)C5)cn3)ncc2F)sc2c1C(=O)N(C)CC21CC1` [Example 36, 2′-(5-Fluoro-2-((5-(2-methyl-2,7-diazaspiro[3.5]nonan-7-yl)pyridin-2-yl)amino)pyrimidin-4-yl)-3′,5′-dimethyl-5′,6′-dihydro-4′H-spiro[cyclopropane-1,7′-thieno[3,2-c]pyridin]-4′-one], the pIC50 in assay [1] (Homo sapiens, 240 h) was 6.70 to 7.70; on CDK4/Cyclin D1, at least 7.70; at CDK6/Cyclin D1 it was at least 7.70.
Turning to `Cc1c(-c2nc(Nc3ccc(N4CCC5(CCN(C)C5)C4)cn3)ncc2F)sc2c1C(=O)N(C)CC21CC1` (stereo not drawn) [Example 37, 2′-(5-Fluoro-2-((5-(7-methyl-2,7-diazaspiro[4.4]nonan-2-yl)pyridin-2-yl)amino)pyrimidin-4-yl)-3′,5′-dimethyl-5′,6′-dihydro-4′H-spiro[cyclopropane-1,7′-thieno[3,2-c]pyridin]-4′-one], the pIC50 was 6.70 to 7.70 in assay [1] (Homo sapiens, 240 h); at least 7.70 on CDK4/Cyclin D1; at least 7.70 at CDK6/Cyclin D1.
With `CN1CCC(c2ccc(Nc3nc(-c4cc5c(s4)C4(CC4)CN(C)C5=O)ncc3C(F)(F)F)nc2)CC1` [Example 40, 5-Methyl-2-[4-[[5-(1-methylpiperidin-4-yl)pyridin-2-yl]amino]-5-(trifluoromethyl)pyrimidin-2-yl]spiro[6H-thieno[3,2-c]pyridine-7,1′-cyclopropane]-4-one], the pIC50 in assay [1] (Homo sapiens, 240 h) was at least 7.70; on CDK4/Cyclin D1, at least 7.70; on CDK6/Cyclin D1, at least 7.70.
For `Cc1cnc(Nc2ccc(N3CCC4(CC3)CN(C)C4)cn2)nc1-c1cc2c(s1)C1(CC1)CN(C)C2=O` [Example 43, 5-methyl-2-[5-Methyl-2-[[5-(2-methyl-2,7-diazaspiro[3.5]nonan-7-yl)pyridin-2-yl]amino]pyrimidin-4-yl]spiro[6H-thieno[3,2-c]pyridine-7,1′-cyclopropane]-4-one], the pIC50 in assay [1] (Homo sapiens, 240 h) was 6.70 to 7.70; on CDK4/Cyclin D1, at least 7.70; at CDK6/Cyclin D1, at least 7.70.
In the case of `CCN1CC2(C1)CN(c1ccc(Nc3ncc(Cl)c(-c4cc5c(s4)C4(CC4)CN(C)C5=O)n3)nc1)C2` [Example 45, 2-[5-Chloro-2-[[5-(6-ethyl-2,6-diazaspiro[3.3]heptan-2-yl)pyridin-2-yl]amino]pyrimidin-4-yl]-5-methylspiro[6H-thieno[3,2-c]pyridine-7,1′-cyclopropane]-4-one], the pIC50 in assay [1] (Homo sapiens, 240 h) is at least 7.70; on CDK4/Cyclin D1, at least 7.70; on CDK6/Cyclin D1 it was at least 7.70.
On to `CN1CC2(CCC2)c2sc(-c3nc(Nc4ccc(N5CC6CC(C5)N6C)cn4)ncc3F)cc2C1=O` [Example 46, 2′-(5-Fluoro-2-((5-(6-methyl-3,6-diazabicyclo[3.1.1]heptan-3-yl)pyridin-2-yl)amino)pyrimidin-4-yl)-5′-methyl-5′,6′-dihydro-4′H-spiro[cyclobutane-1,7′-thieno[3,2-c]pyridin]-4′-one], for which the pIC50 in assay [1] (Homo sapiens, 240 h) was 6.70 to 7.70; at CDK4/Cyclin D1, at least 7.70; on CDK6/Cyclin D1, 6.70 to 7.70.
As for `CCN1CC2(C1)CN(c1ccc(Nc3ncc(F)c(-c4sc5c(c4C)C(=O)N(C)CC54CCC4)n3)nc1)C2` [Example 52, 2′-(2-((5-(6-Ethyl-2,6-diazaspiro[3.3]heptan-2-yl)pyridin-2-yl)amino)-5-fluoropyrimidin-4-yl)-3′,5′-dimethyl-5′,6′-dihydro-4′H-spiro[cyclobutane-1,7′-thieno[3,2-c]pyridin]-4′-one], the pIC50 in assay [1] (Homo sapiens, 240 h) was 6.70 to 7.70; on CDK4/Cyclin D1 it was at least 7.70; at CDK6/Cyclin D1, at least 7.70.
`CN1CC2(CCC2)c2sc(-c3nc(Nc4ccc(N5CCN6CCC5CC6)cn4)ncc3F)cc2C1=O` [Example 53, 2′-(2-((5-(1,4-Diazabicyclo[3.2.2]nonan-4-yl)pyridin-2-yl)amino)-5-fluoropyrimidin-4-yl)-5′-methyl-5′,6′-dihydro-4′H-spiro[cyclobutane-1,7′-thieno[3,2-c]pyridin]-4′-one]: the pIC50 in assay [1] (Homo sapiens, 240 h) was 6.70 to 7.70; at CDK4/Cyclin D1, at least 7.70; on CDK6/Cyclin D1, 6.70 to 7.70.
Regarding `Cc1c(-c2nc(Nc3ccc(N4CC5(CCN(C)C5)C4)cn3)ncc2F)sc2c1C(=O)N(C)CC21CCC1` [Example 54, 2′-(5-Fluoro-2-((5-(6-methyl-2,6-diazaspiro[3.4]octan-2-yl)pyridin-2-yl)amino)pyrimidin-4-yl)-3′,5′-dimethyl-5′,6′-dihydro-4′H-spiro[cyclobutane-1,7′-thieno[3,2-c]pyridin]-4′-one], the pIC50 is 6.70 to 7.70 in assay [1] (Homo sapiens, 240 h); at least 7.70 on CDK4/Cyclin D1; at least 7.70 on CDK6/Cyclin D1.
For the compound `Cc1c(-c2nc(Nc3ccc(N4C[C@H]5CN(C)C[C@H]5C4)cn3)ncc2F)sc2c1C(=O)N(C)CC21CCC1` [Example 57, 2′-(5-Fluoro-2-((5-((3aR,6aS)-5-methylhexahydropyrrolo[3,4-c]pyrrol-2(1H)-yl)pyridin-2-yl)amino)pyrimidin-4-yl)-3′,5′-dimethyl-5′6′-dihydro-4′H-spiro[cyclobutane-1,7′-thieno[3,2-c]pyridin]-4′-one], the pIC50 was 6.70 to 7.70 in assay [1], at least 7.70 on CDK4/Cyclin D1 and at least 7.70 on CDK6/Cyclin D1.
With `CN1CCC(c2ccc(Nc3nc(-c4cc5c(s4)C4(CCC4)CN(C)C5=O)ncc3C(F)(F)F)nc2)CC1` [Example 58], the pIC50 (in assay [1]; on CDK4/Cyclin D1; at CDK6/Cyclin D1) was at least 7.70 throughout.
Take `Cc1c(-c2nc(Nc3ccc(C4CCN(C)CC4)cn3)ncc2Cl)sc2c1C(=O)N(C)CC21CCC1` [Example 60, 2-[5-Chloro-2-[[5-(1-methyl-piperidin-4-yl)pyridin-2-yl]amino]pyrimidin-4-yl]-3,5-dimethylspiro[6H-thieno[3,2-c]pyridine-7,1′-cyclobutane]-4-one]: the pIC50 was 6.70 to 7.70 in assay [1] (Homo sapiens, 240 h); at least 7.70 at CDK4/Cyclin D1; at least 7.70 at CDK6/Cyclin D1.
Take `CN1CC2(C1)CN(c1ccc(Nc3ncc(F)c(-c4cc5c(s4)C4(CCCC4)CN(C)C5=O)n3)nc1)C2` [Example 61, 2′-(5-Fluoro-2-((5-(6-(methyl-d3)-2,6-diazaspiro[3.3]heptan-2-yl)pyridin-2-yl)amino)pyrimidin-4-yl)-5,-(methyl-d3)-5′,6′-dihydro-4′H-spiro[cyclopentane-1,7′-thieno[3,2-c]pyridin]-4′-one]: the pIC50 (in assay [1]; on CDK4/Cyclin D1; on CDK6/Cyclin D1) was at least 7.70 each time.
